Test results as given in ChEMBL document CHEMBL3853273, “Multi-target screening mines hesperidin as a multi-potent inhibitor: Implication in Alzheimer's disease therapeutics” (Eur J Med Chem, 2016).
Calls of active or inactive are those of the source. The calls are words filed in the database; no cut-off is given here.

What was measured:
[1] = Antioxidant activity of the compound assessed as inhibition of fenton reaction-induced DNA strand cleavage of plasmid pcDNA Hismyc B4 after 1 hr by ethidium bromide staining-based agarose gel electrophoresis; format: functional
[2] = molecular target: Beta-secretase 1 (Homo sapiens) (UniProt P56817); assay: Binding affinity to BACE1 (unknown origin) in acetate buffer at pH 4.8 at 0.25 to 5 uM by steady state spectrofluorimeter
[3] = molecular target: Beta-secretase 1 (Homo sapiens) (UniProt P56817); assay: Binding affinity to BACE1 (unknown origin) in acetate buffer at pH 4.8 at 250 nM by steady state spectrofluorimeter
[4] = molecular target: Beta-secretase 1 (Homo sapiens) (UniProt P56817); assay: Binding affinity to BACE1 (unknown origin) in PBS at pH 7.4 up to 10 uM by steady state spectrofluorimeter
[5] = molecular target: Beta-secretase 1 (Homo sapiens) (UniProt P56817); assay: Binding affinity to BACE1 (unknown origin) in acetate buffer at pH 4.8 assessed as increase in lifetime species of excited tryptophan in active site at 5 uM by time-resolved fluorescence spectroscopy relative to control
[6] = molecular target: Beta-secretase 1 (Homo sapiens) (UniProt P56817); assay: Binding affinity to BACE1 (unknown origin) by fluorescence titration method
[7] = molecular target: Beta-secretase 1 (Homo sapiens) (UniProt P56817); assay: Inhibition of BACE1 (unknown origin) at 500 nM incubated for 2 hrs by FRET assay relative to control
[8] = molecular target: Amyloid-beta precursor protein (Homo sapiens) (UniProt P05067); assay: Inhibition of amyloid beta (25 to 35 residues) (unknown origin) aggregation at 20 uM incubated for 3 days by intrinsic flavonoid fluorescence assay
[9] = molecular target: Amyloid-beta precursor protein (Homo sapiens) (UniProt P05067); assay: Inhibition of amyloid beta (25 to 35 residues) (unknown origin) aggregation at 20 uM incubated for 3 days by 8-anilino-1-naphthalene-based fluorescence spectrophotometric method
[10] = molecular target: Amyloid-beta precursor protein (Homo sapiens) (UniProt P05067); assay: Inhibition of amyloid beta (25 to 35 residues) (unknown origin) aggregation at 20 uM incubated for 3 days by thioflavin T-based fluorescence spectrophotometric method
[11] = molecular target: Amyloid-beta precursor protein (Homo sapiens) (UniProt P05067); assay: Inhibition of amyloid beta (25 to 35 residues) (unknown origin) aggregation at 10 uM incubated for 3 days by thioflavin T-based fluorescence spectrophotometric method relative to control
[12] = molecular target: Amyloid-beta precursor protein (Homo sapiens) (UniProt P05067); assay: Inhibition of amyloid beta (25 to 35 residues) (unknown origin) aggregation at 100 uM incubated for 7 days by atomic force microscopic method
[13] = Antioxidant activity of the compound assessed as ABTS free radical scavenging activity; format: functional
[14] = Antioxidant activity of the compound assessed as inhibition of fenton reaction-induced DNA strand cleavage of plasmid pcDNA Hismyc B4 at 250 uM after 1 hr by ethidium bromide staining-based agarose gel electrophoresis; format: functional

Chain of Beta-secretase 1 (Homo sapiens) (P56817 whole entry, the tested form may be a part): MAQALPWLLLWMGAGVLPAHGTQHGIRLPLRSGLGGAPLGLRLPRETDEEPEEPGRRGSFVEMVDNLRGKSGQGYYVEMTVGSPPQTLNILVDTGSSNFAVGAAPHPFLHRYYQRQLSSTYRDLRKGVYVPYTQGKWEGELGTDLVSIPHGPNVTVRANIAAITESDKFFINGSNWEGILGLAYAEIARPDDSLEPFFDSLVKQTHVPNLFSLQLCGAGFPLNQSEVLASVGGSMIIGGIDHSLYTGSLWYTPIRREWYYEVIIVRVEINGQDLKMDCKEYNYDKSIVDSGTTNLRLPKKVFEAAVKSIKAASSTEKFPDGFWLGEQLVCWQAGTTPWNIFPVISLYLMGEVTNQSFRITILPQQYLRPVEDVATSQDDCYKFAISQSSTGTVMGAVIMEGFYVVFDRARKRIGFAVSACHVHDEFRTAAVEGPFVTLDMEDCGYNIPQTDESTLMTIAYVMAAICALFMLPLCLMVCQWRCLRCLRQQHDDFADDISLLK
Chain of Amyloid-beta precursor protein (Homo sapiens) (P05067 whole entry, the tested form may be a part): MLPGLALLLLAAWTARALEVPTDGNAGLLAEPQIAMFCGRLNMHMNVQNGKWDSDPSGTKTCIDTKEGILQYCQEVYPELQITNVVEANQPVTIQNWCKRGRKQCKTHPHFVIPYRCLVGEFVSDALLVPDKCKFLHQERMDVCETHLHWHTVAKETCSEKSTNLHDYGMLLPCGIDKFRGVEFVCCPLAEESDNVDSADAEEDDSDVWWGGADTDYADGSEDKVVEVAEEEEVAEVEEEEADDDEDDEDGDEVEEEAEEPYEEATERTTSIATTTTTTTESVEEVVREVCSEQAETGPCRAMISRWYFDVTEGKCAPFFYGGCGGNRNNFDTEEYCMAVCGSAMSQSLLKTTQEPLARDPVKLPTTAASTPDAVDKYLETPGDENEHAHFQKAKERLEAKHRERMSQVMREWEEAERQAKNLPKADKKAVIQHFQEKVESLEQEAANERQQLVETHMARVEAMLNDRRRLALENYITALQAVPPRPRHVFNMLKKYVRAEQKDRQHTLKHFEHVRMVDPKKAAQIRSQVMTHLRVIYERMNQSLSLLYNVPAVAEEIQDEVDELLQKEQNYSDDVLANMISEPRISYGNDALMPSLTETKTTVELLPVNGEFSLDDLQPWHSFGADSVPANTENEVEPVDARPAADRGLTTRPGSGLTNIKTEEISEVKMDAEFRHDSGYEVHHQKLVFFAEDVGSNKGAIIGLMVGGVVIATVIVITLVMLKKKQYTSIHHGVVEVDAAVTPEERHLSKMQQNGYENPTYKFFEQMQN

Activity [2] | Activity [3] | Activity [4] | fold change (FC) [5] | K [6] | inhibition [7] | inhibition [8] | inhibition [9] | inhibition [10] | inhibition [11] | inhibition [12] | IC50 [13] | SMILES | inhibition [1] | Activity [13] | inhibition [14]
– | – | – | – | – | – | – | – | – | – | – | – | Cc1c(C)c2c(c(C)c1O)CCC(C)(C(=O)O)O2 (stereo not given) | Active | – | –
Active | Active | Active | 2.5 | 302000 | 100% | Active | Active | Active | 40% | Active | 16.5 µM | COc1ccc([C@@H]2CC(=O)c3c(O)cc(O[C@@H]4O[C@H](CO[C@@H]5O[C@@H](C)[C@H](O)[C@@H](O)[C@H]5O)[C@@H](O)[C@H](O)[C@H]4O)cc3O2)cc1O [HESPERIDIN] | – | Dose-dependent effect | Active
